Source: ChEMBL document CHEMBL1201862, “PubChem BioAssay data set” (2004)
Calls of active or inactive are those of the source.

Columns and labels:
[1] = biological target: T1, Heat shock factor protein 1 (Mus musculus, UniProt P38532); experiment: enhancement of HSF1-driven luciferase signal – cell-based, NIH3T3, luminescence, dose retest, confirmation (AID 435004); assay type: functional;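 further: stress induced by proteasome inhibitor MG132 added 30 min after compound; luciferase reporter driven by HSF1 response element in NIH3T3 cells; actives raise luminescence as potentiators of the MG132 stress response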
T1 sequence (P38532 whole entry): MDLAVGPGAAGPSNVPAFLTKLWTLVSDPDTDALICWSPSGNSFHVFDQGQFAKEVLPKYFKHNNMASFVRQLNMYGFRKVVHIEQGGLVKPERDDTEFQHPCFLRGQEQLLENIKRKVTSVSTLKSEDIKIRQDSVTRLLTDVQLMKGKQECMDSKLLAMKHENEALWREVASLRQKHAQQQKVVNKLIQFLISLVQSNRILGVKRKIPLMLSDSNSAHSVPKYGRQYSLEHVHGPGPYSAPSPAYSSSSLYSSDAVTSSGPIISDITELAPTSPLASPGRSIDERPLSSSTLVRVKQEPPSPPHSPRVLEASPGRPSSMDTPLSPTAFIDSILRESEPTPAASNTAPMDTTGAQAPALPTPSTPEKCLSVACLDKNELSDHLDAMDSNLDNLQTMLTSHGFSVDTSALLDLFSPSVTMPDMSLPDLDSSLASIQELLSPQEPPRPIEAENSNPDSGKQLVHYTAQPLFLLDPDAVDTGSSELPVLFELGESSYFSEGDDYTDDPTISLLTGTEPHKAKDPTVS

[2] = NIH3T3 cell viability loss – ATP luminescence, mouse fibroblasts, counter-screen, dose response (AID 2010); assay type: functional, cell-based;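 further: cells exposed to compound for about 90 hours before reading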
[3] = viability of uninfected HEp-2 cells – cell-based, HTS, cytotoxicity control for RSV inhibitor project, dose response (AID 2410); assay type: functional; settings: human respiratory syncytial virus
[4] = Trypanosoma cruzi growth suppression in host cells – NIH3T3 host cells, beta-gal luminescence, confirmation (AID 2044); assay type: functional, cell-based;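 further: intracellular parasites grown in NIH/3T3 mouse fibroblasts as host cells; luminescent beta-galactosidase reporter signal from transgenic T. cruzi replicating inside host cells; inhibitors lower the luminescence signal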
[5] = Luminescence Cell-Based Dose Response HTS to Identify Inhibitors of 5'UTR Stem-Loop Driven Prion Protein mRNA Translation in H4 Neuroglioblastoma Cells. [Related pubchem assays: 1827 (Project Summary), 1813 (Primary HTS)]; assay type: functional
[6] = luciferase reporter signal suppression in cells – H4 neuroglioma cells, luminescence, dose response (AID 1990); assay type: functional, cell-based
[7] = alpha-synuclein stem-loop luciferase translation blockers – H4 neuroglioma cells, luminescence, confirmation (AID 1988); assay type: functional, cell-based
Large T antigen = Large T antigen (Simian virus 40, UniProt P03070); assay type: functional, Betapolyomavirus macacae;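 further: Confirmatory-stage PubChem screen for compounds that inhibit SV40 T antigen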
[8] = microbe, parasite or virus in culture; assay type: functional; settings: Mycobacterium tuberculosis
Paired box protein Pax-8 = Paired box protein Pax-8 (Homo sapiens, UniProt Q06710); experiment: PAX8 transcriptional activity inhibition in RMG-I – RMG-I cells, luciferase, cherry-pick, dose response (AID 687027); assay type: functional, cell-based;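 further: luciferase reporter driven by Pax8 target thyroperoxidase promoter measured by SteadyGlo luminescence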
[9] = Luminescence Cell-Based Dose Retest to Confirm Inhibitors of Cancer Stem Cells. [Related pubchem assays (depositor defined):AID2717, AID2721]; assay type: functional; settings: Homo sapiens
[10] = biological target: T2, Replicative DNA helicase DnaB (Mycobacterium tuberculosis, UniProt P9WMR3); experiment: DnaB intein splicing inhibitors, dose response, biochemical, cell-free fluorescence (AID 449749); assay type: functional
T2 sequence (P9WMR3 whole entry): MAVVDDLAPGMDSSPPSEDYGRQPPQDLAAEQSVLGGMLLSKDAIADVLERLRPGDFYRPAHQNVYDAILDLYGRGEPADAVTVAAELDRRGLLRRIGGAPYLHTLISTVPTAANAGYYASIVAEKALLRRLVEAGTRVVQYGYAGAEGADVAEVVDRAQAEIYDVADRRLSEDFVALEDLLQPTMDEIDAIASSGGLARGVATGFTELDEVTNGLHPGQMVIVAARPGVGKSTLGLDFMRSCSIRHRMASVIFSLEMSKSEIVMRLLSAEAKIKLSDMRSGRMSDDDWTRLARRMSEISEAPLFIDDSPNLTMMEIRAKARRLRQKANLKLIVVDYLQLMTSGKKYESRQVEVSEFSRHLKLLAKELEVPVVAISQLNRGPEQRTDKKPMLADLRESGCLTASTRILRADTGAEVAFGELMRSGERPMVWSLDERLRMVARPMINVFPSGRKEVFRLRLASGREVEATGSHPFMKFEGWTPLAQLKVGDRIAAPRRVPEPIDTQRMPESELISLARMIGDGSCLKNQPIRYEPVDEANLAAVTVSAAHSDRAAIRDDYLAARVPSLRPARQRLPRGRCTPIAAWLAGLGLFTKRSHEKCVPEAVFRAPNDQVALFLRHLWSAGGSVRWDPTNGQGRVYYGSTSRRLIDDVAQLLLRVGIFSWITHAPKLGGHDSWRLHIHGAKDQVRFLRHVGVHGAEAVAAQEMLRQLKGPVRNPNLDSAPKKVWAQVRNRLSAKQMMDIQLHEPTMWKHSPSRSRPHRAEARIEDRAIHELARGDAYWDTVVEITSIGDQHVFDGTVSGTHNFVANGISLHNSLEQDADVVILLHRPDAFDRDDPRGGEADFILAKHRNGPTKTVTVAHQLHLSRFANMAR

INS1 = experiment: INS-1E survival protection against cytokine death – cell-based, luminescence, retest, dose response (AID 449756); assay type: functional; settings: Rattus norvegicus;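 further: cell death triggered by IL-1 beta plus TNF-alpha plus IFN-gamma mixture; protective hits raise ATP signal compared with cytokine alone wells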
Protein RecA = biological target: T3, Protein RecA (Mycobacterium tuberculosis, UniProt P9WHJ3); experiment: Fluorescence Cell-Free Homogeneous Dose Retest to Identify Inhibitors of RecA-Intein Splicing Activity. [Related pubchem assays (depositor defined):AID2097, AID2223, AID489010, AID492950]; assay type: functional
T3 sequence (P9WHJ3 whole entry): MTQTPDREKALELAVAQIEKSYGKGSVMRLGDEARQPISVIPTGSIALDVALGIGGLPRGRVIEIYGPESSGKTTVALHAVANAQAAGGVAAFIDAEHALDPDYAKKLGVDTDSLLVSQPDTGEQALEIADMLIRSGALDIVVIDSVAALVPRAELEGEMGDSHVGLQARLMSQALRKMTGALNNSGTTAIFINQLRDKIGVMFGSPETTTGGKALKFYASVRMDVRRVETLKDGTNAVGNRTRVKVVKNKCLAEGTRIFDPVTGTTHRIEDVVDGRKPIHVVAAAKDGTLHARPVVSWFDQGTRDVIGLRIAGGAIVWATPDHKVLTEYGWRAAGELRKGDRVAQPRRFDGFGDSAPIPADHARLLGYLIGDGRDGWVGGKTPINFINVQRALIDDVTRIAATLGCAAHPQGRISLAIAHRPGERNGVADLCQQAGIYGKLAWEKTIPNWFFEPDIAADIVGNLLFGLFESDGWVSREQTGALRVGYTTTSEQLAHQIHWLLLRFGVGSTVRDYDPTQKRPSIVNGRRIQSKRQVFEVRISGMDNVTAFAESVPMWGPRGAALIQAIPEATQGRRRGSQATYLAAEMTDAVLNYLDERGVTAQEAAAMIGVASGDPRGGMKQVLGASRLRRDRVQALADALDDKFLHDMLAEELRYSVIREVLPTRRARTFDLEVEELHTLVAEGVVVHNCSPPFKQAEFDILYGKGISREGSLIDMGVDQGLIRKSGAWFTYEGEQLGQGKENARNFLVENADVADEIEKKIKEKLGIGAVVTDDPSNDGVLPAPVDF

Paired box protein Pax-8, sequence (Q06710 whole entry): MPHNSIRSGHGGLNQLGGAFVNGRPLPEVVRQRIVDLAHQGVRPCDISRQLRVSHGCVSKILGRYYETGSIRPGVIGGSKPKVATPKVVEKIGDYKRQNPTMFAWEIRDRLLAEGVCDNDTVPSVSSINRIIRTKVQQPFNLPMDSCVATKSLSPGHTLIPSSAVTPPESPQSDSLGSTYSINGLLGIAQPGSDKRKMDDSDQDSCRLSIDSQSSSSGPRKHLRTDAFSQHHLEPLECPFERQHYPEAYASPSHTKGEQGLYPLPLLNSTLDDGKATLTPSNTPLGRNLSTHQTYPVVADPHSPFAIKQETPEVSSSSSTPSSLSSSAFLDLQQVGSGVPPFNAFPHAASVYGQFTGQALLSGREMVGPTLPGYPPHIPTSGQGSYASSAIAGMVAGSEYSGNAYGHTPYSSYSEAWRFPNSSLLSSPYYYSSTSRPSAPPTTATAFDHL
Large T antigen, sequence (P03070 whole entry): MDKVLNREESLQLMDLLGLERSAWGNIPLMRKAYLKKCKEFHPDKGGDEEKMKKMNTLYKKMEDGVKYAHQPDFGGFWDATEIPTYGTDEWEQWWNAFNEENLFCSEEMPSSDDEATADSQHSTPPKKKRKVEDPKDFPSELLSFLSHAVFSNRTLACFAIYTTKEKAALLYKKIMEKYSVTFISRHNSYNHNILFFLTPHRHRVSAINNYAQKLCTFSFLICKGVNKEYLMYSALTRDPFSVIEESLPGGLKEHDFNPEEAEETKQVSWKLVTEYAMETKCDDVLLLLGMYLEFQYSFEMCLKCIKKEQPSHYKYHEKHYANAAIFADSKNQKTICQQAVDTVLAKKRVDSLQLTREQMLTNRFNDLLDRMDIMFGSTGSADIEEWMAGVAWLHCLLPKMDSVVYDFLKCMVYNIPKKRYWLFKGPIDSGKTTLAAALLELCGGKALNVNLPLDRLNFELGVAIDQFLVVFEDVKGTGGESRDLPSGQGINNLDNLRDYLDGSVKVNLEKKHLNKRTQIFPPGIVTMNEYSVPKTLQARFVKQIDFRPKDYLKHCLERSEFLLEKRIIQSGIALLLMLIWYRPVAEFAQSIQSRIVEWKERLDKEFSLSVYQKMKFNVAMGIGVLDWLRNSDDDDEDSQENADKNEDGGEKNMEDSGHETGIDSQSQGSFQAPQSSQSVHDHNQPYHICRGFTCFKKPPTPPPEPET

Structure (SMILES) | EC50 [1] | EC50 [5] | EC50 [6] | EC50 [7] | other results
COCCCNC(=O)CCn1c(=O)c2ccccc2n(CC(=O)Nc2cc(Cl)ccc2C)c1=O | > 260 µM (inactive) |  |  |  | 
COP(=O)(OC)c1nc(-c2cccc3ccccc23)oc1NCc1ccccc1 | > 260 µM (inactive) |  |  |  | 
CCOc1cc(/C=N/NC(=O)Cn2nc([N+](=O)[O-])cc2C)cc(Br)c1OCc1ccccc1C | > 260 µM (inactive) |  |  |  | EC50 [2]: > 60 µM (not active); CC50 [3]: 8.17 µM (active); EC50 [4]: 2.32 µM (active)
COC(=O)C1C/C(=N\NS(=O)(=O)c2ccc(C)cc2)c2sccc2C1 (centres undefined) |  | > 120 µM (not active) | > 120 µM (not active) | > 120 µM (not active) | 
COc1ccc(-n2c(=O)c3c4c(sc3n3c(S)nnc23)COC(C(C)C)C4)cc1 (centres undefined) |  |  |  |  | IC50 (Large T antigen): 16.7 µM (active)
Nc1cc(C(=O)O)ccc1Nc1ccccc1 |  |  |  |  | IC50 (Large T antigen): 12.5 µM (active)
Cc1sc2nc(CSc3cccc(C(F)(F)F)c3)nc(O)c2c1C | > 260 µM (inactive) |  |  |  | 
CC(=O)c1ccc(-c2ccccc2[C@H]2[C@H]3C=CC[C@@H](C)[C@@H]3C(=O)N2Cc2ccccc2)cc1 |  | > 120 µM (not active) | 30 µM (active) | 22.4 µM (active) | 
Oc1cc(CCl)nc(Cc2c(Cl)cccc2Cl)n1 |  |  |  |  | CC50 [8]: 21.7 µM (active)
Fc1cc(F)cc(Nc2nc(Cl)nc(NC3CCCC3)n2)c1 |  |  |  |  | CC50 [8]: > 40 µM (active)
COc1ccccc1NC(=O)C1=C(C)N=C2CC(c3ccc(OC)c(OC)c3)CC(O)=C2C1c1coc2ccccc2c1=O (centres undefined) | 34.5 µM (active) |  |  |  | 
Cc1cc2oc3c(c(=O)c2cc1C)C(c1ccc(C(C)C)cc1)N(CCCN1CCOCC1)C3=O (centres undefined) | > 260 µM (inactive) |  |  |  | 
CCCCCn1c(Sc2ccccc2)nc2c1c(=O)[nH]c(=O)n2C |  | 20.1 µM (active) | 5.33 µM (active) | 16.9 µM (active) | 
C[C@@H]1CCCCO[C@H](CN(C)C)[C@H](C)CN([C@H](C)CO)C(=O)c2cc(NC(=O)Nc3cccc4ccccc34)ccc2O1 |  |  |  |  | AC50 (Paired box protein Pax-8): 33.5 µM (active)
Cc1cc(Oc2ccc(=O)n(C)n2)nc(SCc2ccccc2)n1 |  | 16.6 µM (active) | > 120 µM (not active) | 22.1 µM (active) | 
CC(=O)Nc1nnc(SCC(=O)c2ccc(F)cc2)s1 | 67.4 µM (active) |  |  |  | 
Cc1cc2oc(=O)c(CC(=O)NCCCN(C)C)c(C)c2c2occ(C(C)(C)C)c12 |  | 12.6 µM (active) | > 120 µM (not active) | 8.72 µM (active) | EC50 [2]: 4.86 µM (active); AC50 [9]: 1.22 µM (active); EC50 [4]: 2.29 µM (active)
CCn1c(-c2ccccc2)c(C(=O)CCl)c2ccccc21 | 7.71 µM (active) |  |  |  | AC50 [10]: 3.27 µM (active); AC50 (INS1): 7.82 µM (active); EC50 (Protein RecA): 1.05 µM (active); EC50 [2]: 4.12 µM (active); EC50 [4]: 1.42 µM (active)
COc1ccc(NC(=O)c2sc(S)nc2N)cc1 |  |  |  |  | IC50 (Large T antigen): 7.51 µM (active)
O=C1N=C(Nc2ccc(O)cc2)S/C1=C/c1ccco1 |  |  |  |  | IC50 (Large T antigen): 3.47 µM (active)
COc1ccc(S(=O)(=O)Nc2ccc3c(c2)CC(=O)N([C@H](C)CO)C[C@H](C)[C@@H](CN(C)Cc2ccc(-c4ccccc4)cc2)O3)cc1 |  |  |  |  | AC50 (Paired box protein Pax-8): 9.41 µM (active)
Cc1cc(Cl)ccc1OCC(=O)Nc1ccccc1N1CCOCC1 |  | > 120 µM (not active) | 18.2 µM (active) | > 120 µM (not active) | 
CC1(c2ccccc2)CC(C)(C)n2c(O)c(C3=NC(=S)NC3=O)c3cccc1c32 (centres undefined) |  | 17.6 µM (active) | 20.5 µM (active) | 22.8 µM (active) | 
Cc1c(/C=N/NC(=O)c2ccc(Br)o2)cnn1C | > 260 µM (inactive) |  |  |  | 
C[C@H]1CCCCO[C@H](CN(C)Cc2ccc(Cl)c(Cl)c2)[C@@H](C)CN([C@@H](C)CO)C(=O)c2cc(NC(=O)Nc3ccc(F)cc3)ccc2O1 |  |  |  |  | AC50 (Paired box protein Pax-8): 25.9 µM (active)
O=C(CN1C(=O)/C(=C\c2ccco2)SC1=S)Nc1ccc(O)cc1C(=O)O |  |  |  |  | IC50 (Large T antigen): 74.2 µM (active)
COCCn1c(=O)[nH]c2cc(C(=O)N3CCN(c4cccc(Cl)c4)CC3)ccc2c1=O | > 260 µM (inactive) |  |  |  | 
COc1ccc(C2=Nn3c(nnc3-c3ccccn3)SC2)cc1OC |  | > 120 µM (not active) | 20.8 µM (active) | 17.2 µM (active) | 
COc1ccc(-c2cn(Cc3ccc(C(=O)NCc4ccc(C)cc4)cc3)c(C(C)N)n2)cc1 (centres undefined) |  |  |  |  | CC50 [8]: > 40 µM (active)
FC(F)(F)c1cccc(OCc2nnc3n2CCC3)c1 |  | > 120 µM (not active) | > 120 µM (not active) | > 120 µM (not active) | 
